Data published in PubChem BioAssay AID330 (DTP/NCI, 2004).
“And” between values parts separate entries of the source, which are not always exact repeats. Equal values may be shown once. Toxic doses and inconclusive results are not listed. Rule for the calls: active = survival T/C of 150% or more; inactive = T/C below 125% in these data.

Tested on: P388 leukemia ip, CD2F1 mice, survival T/C
Test: NCI In Vivo Anticancer Drug Screen. Data for tumor model P388 Leukemia (intraperitoneal) in CD2F1 (CDF1) mice
Details: endpoint: median survival time, higher = longer survival
In short: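 Mice carrying the transplanted tumor received test compound or vehicle. Survival was recorded in each group, and the value is the treated-group measurement divided by that of the vehicle-treated control group.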

[1] = dose: 12.5 mg/kg/injection, schedule: Q01DX005 (ip), vehicle: Klucel (hydroxypropylcellulose) (HPC)
[2] = dose: 25.0 mg/kg/injection, schedule: Q01DX005 (ip), vehicle: Klucel (hydroxypropylcellulose) (HPC)
[3] = dose: 50.0 mg/kg/injection, schedule: Q01DX005 (ip), vehicle: Klucel (hydroxypropylcellulose) (HPC)
[4] = dose: 60.0 mg/kg/injection, schedule: Q01DX005 (ip), vehicle: saline with Tween-80
[5] = dose: 120.0 mg/kg/injection, schedule: Q01DX005 (ip), vehicle: saline with Tween-80
[6] = dose: 60.0 mg/kg/injection, schedule: Q01DX005 (ip), vehicle: saline
[7] = dose: 120.0 mg/kg/injection, schedule: Q01DX005 (ip), vehicle: saline

Measured: T/C

O=C(O)c1ccc(CCCBr)cc1
inactive: dose: 100.0 mg/kg/injection, schedule: Q01DX009 (ip), vehicle: saline with Tween-80 105 % of control | dose: 200.0 mg/kg/injection, schedule: Q01DX009 (ip), vehicle: saline with Tween-80 100 % of control | dose: 400.0 mg/kg/injection, schedule: Q01DX009 (ip), vehicle: saline with Tween-80 97 % of control

Cc1[nH]c(N)nc(=S)c1CCCNc1ccc(C(=O)NC(CCC(=O)O)C(=O)O)cc1 (stereo not given)
inactive: dose: 6.25 mg/kg/injection, schedule: Q01DX005 (ip), vehicle: Klucel (hydroxypropylcellulose) (HPC) 101 % of control | [1] 99 % of control | [2] 98 % of control

N.N.O=C([O-])/C=C\C(=O)[O-].[Pt]
inactive: dose: 4.38 mg/kg/injection, schedule: Q04DX002 (ip), vehicle: saline with Tween-80 117 % of control

CCN(CCOC(=O)Nc1ccc(Cl)cc1)C(=O)Nc1ccc(Cl)cc1
inactive: dose: 60.0 mg/kg/injection, schedule: Q01DX005 (ip), vehicle: Klucel + Tween-80 90 % of control | dose: 120.0 mg/kg/injection, schedule: Q01DX005 (ip), vehicle: Klucel + Tween-80 87 % of control | dose: 240.0 mg/kg/injection, schedule: Q01DX005 (ip), vehicle: Klucel + Tween-80 87 % of control

CCN1/C(=C/C=C/C=C/c2oc3ccccc3[n+]2CC)Oc2ccccc21
inactive: dose: 0.78 mg/kg/injection, schedule: Q01DX009 (ip), vehicle: saline 104 % of control | dose: 1.56 mg/kg/injection, schedule: Q01DX009 (ip), vehicle: saline 104 % of control | dose: 3.12 mg/kg/injection, schedule: Q01DX009 (ip), vehicle: saline 110 % of control

O=C(/C=C/c1ccccc1)[c-]1[c-][c-][c-][c-]1.[Fe].[c-]1[c-][c-][cH-][c-]1
inactive: [3] 96 % of control | dose: 100.0 mg/kg/injection, schedule: Q01DX005 (ip), vehicle: Klucel (hydroxypropylcellulose) (HPC) 109 % of control | dose: 200.0 mg/kg/injection, schedule: Q01DX005 (ip), vehicle: Klucel (hydroxypropylcellulose) (HPC) 100 % of control

CC(C)c1cccc(C(C)C)c1N1C(=O)C(=O)C(c2nc3ccccc3s2)C(=O)C1=O
inactive: [4] 103 % of control | [5] 102 % of control | dose: 240.0 mg/kg/injection, schedule: Q01DX005 (ip), vehicle: saline with Tween-80 103 % of control

NNC(=O)CNc1ccccc1F
inactive: dose: 15.0 mg/kg/injection, schedule: Q01DX005 (ip), vehicle: saline 97 % of control | dose: 30.0 mg/kg/injection, schedule: Q01DX005 (ip), vehicle: saline 95 % of control | [6] 91 % of control and 97 % of control | [7] 97 % of control

COc1ccc(C2C3C(=O)NC(=O)C2C(=O)NC3=O)cc1OC (stereo not given)
inactive: [6] 101 % of control | [7] 108 % of control | dose: 240.0 mg/kg/injection, schedule: Q01DX005 (ip), vehicle: saline 90 % of control

COc1cccc2c1C(=O)c1c(O)c3c(c(O)c1C2=O)CC(O)(C(=O)CBr)CC3OC1CC(OC(C)=O)C(OC(C)=O)C(C)O1 (stereo not given)
inactive: dose: 3.13 mg/kg/injection, schedule: Q04DX003 (ip), vehicle: distilled water + Tween-80 108 % of control | dose: 6.25 mg/kg/injection, schedule: Q04DX003 (ip), vehicle: distilled water + Tween-80 98 % of control | dose: 12.5 mg/kg/injection, schedule: Q04DX003 (ip), vehicle: distilled water + Tween-80 106 % of control | dose: 25.0 mg/kg/injection, schedule: Q04DX003 (ip), vehicle: distilled water + Tween-80 109 % of control | dose: 50.0 mg/kg/injection, schedule: Q04DX003 (ip), vehicle: distilled water + Tween-80 105 % of control

Cc1csc2c3ccccc3cc(=O)n12
inactive: [1] 95 % of control | [2] 99 % of control | [3] 100 % of control | dose: 100.0 mg/kg/injection, schedule: Q01DX001 (ip), vehicle: Klucel (hydroxypropylcellulose) (HPC) 98 % of control

COC1=CC(=N/Br)/C=CC/1=N/Br
inactive: dose: 50.0 mg/kg/injection, schedule: Q01DX005 (ip), vehicle: saline 98 % of control and 103 % of control | dose: 100.0 mg/kg/injection, schedule: Q01DX005 (ip), vehicle: saline 99 % of control and 100 % of control and 105 % of control | dose: 200.0 mg/kg/injection, schedule: Q01DX005 (ip), vehicle: saline 99 % of control and 107 % of control and 120 % of control

CCCCc1ccc2nc(C)cc(N=[N+]=[N-])c2c1
inactive: [4] 100 % of control | [5] 98 % of control

Cc1cc2cc3n(c2nn1)N=C(Cl)CC3
inactive: [4] 86 % of control | [5] 101 % of control

O=C1CC(SC(=S)N2CCCCC2)C(=O)N1c1ccccc1 (stereo not given)
inactive: dose: 100.0 mg/kg/injection, schedule: Q04DX002 (ip), vehicle: saline 105 % of control and 98 % of control | dose: 200.0 mg/kg/injection, schedule: Q04DX002 (ip), vehicle: saline 100 % of control and 109 % of control | dose: 400.0 mg/kg/injection, schedule: Q04DX002 (ip), vehicle: saline 100 % of control and 104 % of control
